Data taken from BindingDB's records for doi:10.1016/j.chembiol.2013.07.014 (University of Massachusetts, 2013).

Columns and labels:
Experiment in all cases: HIV-1 protease inhibition assay
Details in all cases: pH 4.7; 25 °C
[1] = target: T1, Gag-Pol polyprotein [484-582,Q491K,I497V,V499I,E519D,R541K,D544E,L547P,Q553K,A555V,G557S,I568V,L573M,L574M] (Human immunodeficiency virus, UniProt Q9QBY3, A555V/D544E/E519D/G557S/I497V/I568V/L547P/L573M/L574M/Q491K/Q553K/R541K/V499I)
T1 construct: 484-582
Description: (§1) The reaction mixture contained 2 µL of protease and 2 µL of inhibitor (or DMSO as a control) and was incubated for 20-30 min at room temperature prior to the substrate cleavage reaction. 150 µL of a 1 µM substrate were used in substrate buffer (0.1 M sodium acetate, 1 M sodium chloride, 1 mM EDTA, 1 MM DTT, 2% DMSO, and 1 mg/mL BSA with an adjusted pH of 4.7).

[2] = target: T2, Gag-Pol polyprotein [484-582,Q491K,I494L,I497V,V499I,E519D,I534V,R541K,D544E,Q553K,A555V,L573M] (Human immunodeficiency virus, UniProt Q9QBY3, A555V/D544E/E519D/I494L/I497V/I534V/L573M/Q491K/Q553K/R541K/V499I)
T2 construct: 484-582
Description: as §1

[3] = target: T3, Gag-Pol polyprotein [484-582,Q491K,I497V,V499I,E519D,G532V,I538V,R541K,D544E,L547P,Q553K,V566A,L573M] (Human immunodeficiency virus, UniProt Q9QBY3, D544E/E519D/G532V/I497V/I538V/L547P/L573M/Q491K/Q553K/R541K/V499I/V566A)
T3 construct: 484-582
Description: as §1

SMILES	Ki [1] [nM]	Ki [2] [nM]	Ki [3] [nM]
CC[C@H](C)CN(C[C@@H](O)[C@H](Cc1ccccc1)NC(=O)O[C@H]1CO[C@H]2OCC[C@H]21)S(=O)(=O)c1ccc(CO)cc1 [(3R,3aS,6aR)-Hexahydrofuro[2,3-b]furan-3-yl ((2S,3R)-3-hydroxy-4-(4-(hydroxymethyl)-N-((S)-2-methylbutyl)phenylsulfonamido)-1-phenylbutan-2-yl)carbamate (10c)]	0.004	0.013	0.022
CC[C@H](C)CN(C[C@@H](O)[C@H](Cc1ccccc1)NC(=O)O[C@H]1CO[C@H]2OCC[C@H]21)S(=O)(=O)c1ccc2ncsc2c1 [(3R,3aS,6aR)-Hexahydrofuro[2,3-b]furan-3-yl ((2S,3R)-3-hydroxy-4-(N-((S)-2-methylbutyl)benzo[d]thiazole-6-sulfonamido)-1-phenylbutan-2-yl)carbamate (10e)]	0.041	0.025	0.012
CC[C@H](C)CN(C[C@@H](O)[C@H](Cc1ccccc1)NC(=O)O[C@H]1CO[C@H]2OCC[C@H]21)S(=O)(=O)c1ccc(OC)cc1 [(3R,3aS,6aR)-Hexahydrofuro[2,3-b]furan-3-yl ((2S,3R)-3-hydroxy-4-(4-methoxy-N-((S)-2-methylbutyl)phenylsulfonamido)-1-phenylbutan-2-yl)carbamate (10b)]	0.021	0.103	0.005
CCC(CC)CN(C[C@@H](O)[C@H](Cc1ccccc1)NC(=O)O[C@H]1CO[C@H]2OCC[C@H]21)S(=O)(=O)c1ccc(OC)cc1 [(3R,3aS,6aR)-Hexahydrofuro[2,3-b]furan-3-yl ((2S,3R)-4-(N-(2-ethylbutyl)-4-methoxyphenylsulfonamido)-3-hydroxy-1-phenylbutan-2-yl)carbamate (11b)]	0.134	0.01	0.001
CC[C@H](C)CN(C[C@@H](O)[C@H](Cc1ccccc1)NC(=O)O[C@H]1CO[C@H]2OCC[C@H]21)S(=O)(=O)c1ccc2c(c1)OCO2 [(3R,3aS,6aR)-Hexahydrofuro[2,3-b]furan-3-yl ((2S,3R)-3-hydroxy-4-(N-((S)-2-methylbutyl)benzo[d][1,3]dioxole-5-sulfonamido)-1-phenylbutan-2-yl)carbamate (10d)]	0.099	0.035	0.029
CCC(CC)CN(C[C@@H](O)[C@H](Cc1ccccc1)NC(=O)O[C@H]1CO[C@H]2OCC[C@H]21)S(=O)(=O)c1ccc2c(c1)OCO2 [(3R,3aS,6aR)-Hexahydrofuro[2,3-b]furan-3-yl ((2S,3R)-4-(N-(2-ethylbutyl)benzo[d][1,3]dioxole-5-sulfonamido)-3-hydroxy-1-phenylbutan-2-yl)carbamate (11d)]	0.104	0.006	0.034
CCC(CC)CN(C[C@@H](O)[C@H](Cc1ccccc1)NC(=O)O[C@H]1CO[C@H]2OCC[C@H]21)S(=O)(=O)c1ccc(CO)cc1 [(3R,3aS,6aR)-Hexahydrofuro[2,3-b]furan-3-yl ((2S,3R)-4-(N-(2-ethylbutyl)-4-(hydroxymethyl)phenylsulfonamido)-3-hydroxy-1-phenylbutan-2-yl)carbamate (11c)]	0.07	0.026	0.005
CC[C@H](C)CN(C[C@@H](O)[C@H](Cc1ccccc1)NC(=O)O[C@H]1CO[C@H]2OCC[C@H]21)S(=O)(=O)c1ccc(N)cc1 [(3R,3aS,6aR)-Hexahydrofuro[2,3-b]furan-3-yl ((2S,3R)-4-(4-amino-N-((S)-2-methylbutyl)phenylsulfonamido)-3-hydroxy-1-phenylbutan-2-yl)carbamate (10a)]	0.013	0.006	0.016
CCC(CC)CN(C[C@@H](O)[C@H](Cc1ccccc1)NC(=O)O[C@H]1CO[C@H]2OCC[C@H]21)S(=O)(=O)c1ccc2ncsc2c1 [(3R,3aS,6aR)-Hexahydrofuro[2,3-b]furan-3-yl ((2S,3R)-4-(N-(2-ethylbutyl)benzo[d]thiazole-6-sulfonamido)-3-hydroxy-1-phenylbutan-2-yl)carbamate (11e)]	0.052	0.108	0.126
CCC(CC)CN(C[C@@H](O)[C@H](Cc1ccccc1)NC(=O)O[C@H]1CO[C@H]2OCC[C@H]21)S(=O)(=O)c1ccc(N)cc1 [(3R,3aS,6aR)-Hexahydrofuro[2,3-b]furan-3-yl ((2S,3R)-4-(4-amino-N-(2-ethylbutyl)phenylsulfonamido)-3-hydroxy-1-phenylbutan-2-yl)carbamate (11a)]	0.022	0.062	0.034
